Reference: patent US20110124564A1, “NUCLEOLIN-BINDING PEPTIDES, NUCLEOLIN- BINDING LYTIC PEPTIDES, FUSION CONSTRUCTS AND METHODS OF MAKING AND USING SAME” (ESPERANCE PHARMACEUTICALS, INC., published 2011)
Read-outs that look alike come from different tables or passages of the source. Residues, ends and D or L forms follow the SMILES beside them.

What was measured:
LoVo (Colon) = type: cell-based; settings: 6 h
Procedure: (§1) EP-302 was freshly dissolved in saline and added into cancer cell seeded multi-well plates at increasing concentrations of 0, 0.001, 0.01, 0.1, 1, 2, 5, 10 and 100 μM. Incubations were conducted for 6 h or 24 h at 37° C. Cell viability was determined using formazan conversion assays (MTT assays). Controls were treated with USP saline or 0.1% TritonX-100™ as reference for 0 and 100% cell death, respectively. Cytotoxicity was evaluated as an IC50 value derived for EP-302 in each cell line.

[1] = system: K562 (Chronic Myeloid Leukemia); type: cell-based; settings: 24 h
Procedure: as §1

HT 116(Colon) = type: cell-based
Procedure: as §1

[2] = system: MV4-11(Acute Myeloid Leukemia); type: cell-based; settings: 24 h
Procedure: as §1

HT 29 (Colon) = type: cell-based; settings: 6 h
Procedure: as §1

MDA-MB-231 (Breast) = type: cell-based
Procedure: as §1

[3] = system: MCF-10A (normal breast cells); type: cell-based; settings: 24 h
Procedure: as §1

Daudi (NHL) = type: cell-based
Procedure: as §1

OVCAR-3 (Ovary) = type: cell-based; settings: 6 h
Procedure: as §1

DU145 (Prostate) = type: cell-based
Procedure: as §1

MCF-7 (Breast) = type: cell-based
Procedure: as §1

SKOV-3 (Ovary) = type: cell-based
Procedure: as §1

A549 (Lung) = type: cell-based
Procedure: as §1

CHO (Hamster Ovary) = type: cell-based
Procedure: as §1

[4] = system: NIH-3T3 (mouse fibroblast cells); type: cell-based; settings: 24 h
Procedure: as §1

human red blood cells = experiment: Hemolytic activity; type: cell-based
Procedure: Hemolytic activity was studied by incubating the fusion constructs with human red blood cells at concentrations of 0.01, 0.1, 1, 10 and 50 μM for 2 hours. Saline and 0.1% Triton served as controls.
Hemolytic activity of the compounds was studied by incubating EP-301 and EP-302 with human red blood cells at concentrations of 0.01, 0.1, 1, 10 and 50 μM for 2 hours.

[5] = In vivo tolerability, repeat dose, nude mice; parameters: species or system mouse; settings: 5 consecutive days; for Survival [%] Day 1 / Survival [%] Day 2* / Survival [%] Day 3 / Survival [%] Day 4 / Survival [%] Day 5: BalbC/nude mice
Procedure: Body weight, blood chemistry and blood cell counts were measured. […] Blood parameters for CBC and serum chemistry were normal in treated mice of both groups.

PC-3 (Prostate) = type: cell-based, human
Procedure: as §1

MDA-MB-435S (Breast) = type: cell-based, human
Procedure: as §1

[6] = system: HL60 (Acute Myeloid Leukemia); type: cell-based, human; settings: 24 h
Procedure: as §1

MiaPaCa (Pancreas) = type: cell-based, human
Procedure: as §1

[7] = system: MDA-MB-435S breast cancer cells; type: cell-based, human; settings: 4 h
[8] = system: MDA-MB-435S breast cancer cells; type: cell-based, human; settings: 6 h
Procedure: EP-301 and EP-302 were analyzed for anti-cancer activity in vitro in a time course experiment against MDA-MB-435S breast cancer cells. EP-301 and EP-302 were freshly dissolved in saline and added into cancer cell seeded multi-well plates at increasing concentrations of 0, 0.001, 0.01, 0.1, 1, 2, 5, 10 and 100 μM. Incubations were conducted for 0.25, 0.5, 1, 2, 4, 6 h or 24 h at 37° C. Cell viability was determined using formazan conversion assays (MTT assays). Controls were treated with USP saline or 0.1% TritonX-100™ as reference for 0 and 100% cell death, respectively. Cytotoxicity was evaluated as an IC50 value derived for EP-301 and EP-302 at each time point.

[9] = 5 and 10 mg/kg i.v., female nude mice

SMILES: CC(C)C[C@H](NC(=O)[C@H](CCCNC(=N)N)NC(=O)[C@H](C)NC(=O)[C@H](CO)NC(=O)[C@H](CCCNC(=N)N)NC(=O)[C@H](CCCNC(=N)N)NC(=O)[C@H](CCC(N)=O)NC(=O)[C@H](CC(C)C)NC(=O)[C@H](CCCNC(=N)N)NC(=O)[C@H](C)NC(=O)[C@H](CCCNC(=N)N)NC(=O)[C@H](CCCCN)NC(=O)[C@H](C)NC(=O)[C@H](Cc1ccccc1)NC(=O)[C@H](CCCCN)NC(=O)[C@H](CCCCN)NC(=O)[C@H](C)NC(=O)[C@H](Cc1ccccc1)NC(=O)[C@H](CCCCN)NC(=O)[C@H](C)NC(=O)[C@H](Cc1ccccc1)NC(=O)[C@H](CCCCN)NC(=O)[C@H](CCCCN)NC(=O)[C@H](C)NC(=O)[C@H](Cc1ccccc1)NC(=O)[C@H](CCCCN)NC(=O)[C@H](C)NC(=O)[C@H](Cc1ccccc1)NC(=O)[C@@H](N)CCCCN)C(=O)N[C@@H](CO)C(=O)N[C@@H](C)C(=O)N[C@@H](CCCCN)C(=O)O [EP-302] (H-KFAKFAKKFAKFAKKFAKRARLQRRSARLSAK-OH)
- IC50 (LoVo (Colon)): 14.1 ± 0.5 µM
- IC50 [1]: 2.8 µM
- IC50 (HT 116(Colon); 6 h): 6.7 ± 0.9 µM
- IC50 (HT 116(Colon); 24 h): 4.8 ± 1.1 µM
- IC50 [2]: 0.5 µM
- IC50 (HT 29 (Colon)): 45.8 ± 0.4 µM
- IC50 (MDA-MB-231 (Breast); 6 h): 4.6 ± 0.9 µM
- IC50 (MDA-MB-231 (Breast); 24 h): 3.6 ± 0.4 µM
- IC50 [3]: 68 µM
- IC50 (Daudi (NHL); 6 h): 3.2 ± 0.4 µM
- IC50 (Daudi (NHL); 24 h): 2.5 ± 0.05 µM
- IC50 (OVCAR-3 (Ovary)): 5.2 ± 0.3 µM
- IC50 (DU145 (Prostate); 6 h): 3.1 ± 0.02 µM
- IC50 (DU145 (Prostate); 24 h): 5.1 ± 0.1 µM
- IC50 (MCF-7 (Breast); 6 h): 5.5 ± 0.4 µM
- IC50 (MCF-7 (Breast); 24 h): 6.4 ± 0.9 µM
- IC50 (SKOV-3 (Ovary); 6 h): 5.1 ± 0.2 µM
- IC50 (SKOV-3 (Ovary); 24 h): 5.2 ± 0.9 µM
- IC50 (A549 (Lung); 6 h): 4.3 ± 0.6 µM
- IC50 (A549 (Lung); 24 h): 2.4 ± 0.08 µM
- IC50 (CHO (Hamster Ovary); 6 h): 3.1 ± 0.9 µM
- IC50 (CHO (Hamster Ovary); 24 h): 3.7 ± 0.2 µM
- IC50 [4]: 53 µM
- HA50 (human red blood cells): Not hemolytic
- Survival [%] Day 1 ([5]; 5 mg/kg i.v.): 100 (5/5) %
- Survival [%] Day 2* ([5]; 5 mg/kg i.v.): 100 (5/5) %
- Survival [%] Day 3 ([5]; 5 mg/kg i.v.): 100 (5/5) %
- Survival [%] Day 4 ([5]; 5 mg/kg i.v.): 100 (5/5) %
- Survival [%] Day 5 ([5]; 5 mg/kg i.v.): 100 (5/5) %
- Survival [%] Day 1 ([5]; 10 mg/kg i.v.): 100 (5/5) %
- Survival [%] Day 2* ([5]; 10 mg/kg i.v.): 100 (5/5) %
- Survival [%] Day 3 ([5]; 10 mg/kg i.v.): 100 (5/5) %
- Survival [%] Day 4 ([5]; 10 mg/kg i.v.): 100 (5/5) %
- Survival [%] Day 5 ([5]; 10 mg/kg i.v.): 100 (5/5) %
- Blood parameters for CBC and serum chemistry [5, 9]: normal
- Body weight [5, 9]: remained stable
- Signs of toxicity / tolerability [5, 9]: no signs of toxicity
- IC50 (PC-3 (Prostate); 6 h): 3.3 ± 0.3 µM
- IC50 (PC-3 (Prostate); 24 h): 3.2 ± 0.8 µM
- IC50 (MDA-MB-435S (Breast); 6 h): 1.4 ± 0.09 µM
- IC50 (MDA-MB-435S (Breast); 24 h): 1.7 ± 0.2 µM
- IC50 [6]: 0.5 µM
- IC50 (MiaPaCa (Pancreas); 6 h): 2.1 ± 0.2 µM
- IC50 (MiaPaCa (Pancreas); 24 h): 1.9 ± 0.1 µM
- IC50 [7]: 0.9 ± 0.05 µM
- IC50 [8]: 2.3 µM
